# Assay results reported in ChEMBL document CHEMBL4699523, “Predicting the Human Hepatic Clearance of Acidic and Zwitterionic Drugs” (J Med Chem, 2020).
# What was measured:
# [1] = physchem; conditions: buffer, pH 7.4
# [2] = in vitro; conditions: cynomolgus monkey, plasma
# Description: Fraction unbound in cynomolgus monkey plasma
# [3] = in vitro; conditions: human, cryopreserved hepatocytes
# [4] = rat, in vivo, iv, 1 mg/kg
# [5] = cynomolgus monkey, in vivo, iv, 1 mg/kg
# [6] = in vitro; conditions: dog, MDCK, pH 7.4
# Description: Apparent permeability in dog MDCKII-LE cells at pH 7.4
# [7] = in vitro; conditions: rat, plasma
# Description: Fraction unbound in rat plasma
# [8] = human, in vivo, iv
# Description: Hepatic clearance in human administered through iv dosing
# [9] = in vivo; conditions: Wistar Hannover, rat, blood and plasma, iv
# Description: Ratio of drug level in Wistar Hannover rat blood to plasma administered through iv dosing by LC-MS/MS analysis
# [10] = in vitro; conditions: human, plasma
# Description: Fraction unbound in human plasma
# [11] = clinical; conditions: human, blood and plasma, iv
# Description: Ratio of drug level in human blood to plasma administered through iv dosing by LC-MS/MS analysis
# [12] = physchem
# [13] = physchem; remark: listed apart in the source
# [14] = in vivo; conditions: cynomolgus monkey, blood and plasma, iv
# Description: Ratio of drug level in cynomolgus monkey blood to plasma administered through iv dosing by LC-MS/MS analysis
# [15] = Ratio of drug level in human blood to plasma administered through oral dosing by LC-MS/MS analysis; assay type: ADME, cell-free; conditions: blood and plasma
# [16] = Ratio of drug level in cynomolgus monkey blood to plasma administered through oral dosing by LC-MS/MS analysis; assay type: ADME, cell-free, Macaca fascicularis; conditions: blood and plasma
# [17] = Hepatic clearance in cynomolgus monkey administered through oral dosing; assay type: ADME, Macaca fascicularis; conditions: in vivo
# [18] = Hepatic clearance in human administered through oral dosing; assay type: ADME
SMILES,logD [1],fraction unbound [2],"CLint scaled at 2 h, 1 µM [3] [mL/min/kg]",CLH [4] [mL/min/kg],CLH [5] [mL/min/kg],Papp [6] [×10⁻⁶ cm/s],fraction unbound [7],CLH [8] [mL/min/kg],blood plasma ratio [9],fraction unbound [10],blood plasma ratio [11],pKa at 0.3 h [12],pKa at 0.3 h [13],blood plasma ratio [14],blood plasma ratio [15],blood plasma ratio [16],CLH [17] [mL/min/kg],CLH [18] [mL/min/kg]
O=C(O)C[C@H](O)C[C@H](O)/C=C/c1c(C2CC2)nc2ccccc2c1-c1ccc(F)cc1 [PITAVASTATIN],1.2,0.0263,31,7.1,17.8,8.5,0.008,5.6,0.65,0.008,0.65,5.1,4.7,0.65,–,–,–,–
CCCc1nc2c(C)cc(-c3nc4ccccc4n3C)cc2n1Cc1ccc(-c2ccccc2C(=O)O)cc1,2.4,0.0125,39,4.3,9.2,12,0.006,10.2,0.65,0.006,0.61,3.2,4.2,0.61,–,–,–,–
Cc1cc(O[C@H](CCC(F)(F)F)c2ccc(C(=O)NCCC(=O)O)cc2)cc(C)c1-c1ccc(C(C)(C)C)cc1,> 3.5,5.6e-05,1680,–,–,–,–,–,–,3.6e-05,–,–,4.4,–,0.605,0.823,0.29,0.078
O=C(O)[C@@H]1CCC[C@H]1C(=O)c1ccc(-c2ccc(Nc3nc4ccc(F)cc4s3)c(F)c2)cc1,> 3.5,0.0014,201,–,–,2.3,–,–,–,0.00086,–,2.4,4.7,–,0.653,0.617,2,0.59
Cc1ccc(S(=O)(=O)NCCc2ccc(Oc3ccc(F)c(F)c3)cc2)cc1C(=O)O,1.6,0.00107,19,–,–,7.3,–,–,–,0.00229,–,–,3.4,–,0.55,0.562,6.1,0.72
Cc1ccc(NC(=O)C2(c3ccc4c(c3)OC(F)(F)O4)CC2)nc1-c1cccc(C(=O)O)c1 [LUMACAFTOR],2.6,0.0045,27,–,–,25,–,–,–,0.0032,–,–,4.2,–,0.575,0.575,0.72,0.26
Cn1cc(C(=O)O)c2ccc(N3CCC(OCc4c(-c5c(Cl)cccc5Cl)noc4C4CC4)CC3)cc21 [TERN-101],2.7,0.0049,111,–,–,17,–,–,–,0.0122,–,–,–,–,0.612,1.1,6,8.8
CCC[C@H](c1ccc(C(=O)NCCC(=O)O)cc1)[C@H](c1ccc(Cl)cc1)c1c[nH]c2c(F)cc(C)cc12 [MK-3577],> 3.5,0.00023,571,–,–,–,–,–,–,0.00025,–,–,4.1,–,0.55,0.95,9.3,4.9
COc1ccccc1[C@H](Cn1c(=O)n(C(C)(C)C(=O)O)c(=O)c2c(C)c(-c3ncco3)sc21)OC1CCOCC1 [FIRSOCOSTAT],1.1,0.0284,23,–,–,5.5,–,–,–,0.0172,–,–,–,–,0.655,0.623,11.3,10
